Where two headings read alike, the source gives them in different places.
Molecular target: T1, human V1b receptors (Homo sapiens, UniProt P47901)
T1 construct: expressed in transfected cells
T1 sequence (P47901 1-424): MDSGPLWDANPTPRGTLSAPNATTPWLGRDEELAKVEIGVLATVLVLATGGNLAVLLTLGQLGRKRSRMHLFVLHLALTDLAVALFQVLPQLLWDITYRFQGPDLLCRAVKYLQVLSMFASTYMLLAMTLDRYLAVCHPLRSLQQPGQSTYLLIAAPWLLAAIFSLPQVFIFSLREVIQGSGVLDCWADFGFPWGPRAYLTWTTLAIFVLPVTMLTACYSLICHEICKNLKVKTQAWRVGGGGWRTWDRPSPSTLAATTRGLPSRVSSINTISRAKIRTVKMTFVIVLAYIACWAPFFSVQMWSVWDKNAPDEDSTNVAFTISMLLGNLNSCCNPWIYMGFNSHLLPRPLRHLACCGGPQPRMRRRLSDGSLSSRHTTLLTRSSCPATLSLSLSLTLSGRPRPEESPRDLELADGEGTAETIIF
Assay: Vasopressin V1b receptor binding assay
Procedure: Vasopressin V1b Receptor Binding Assay:
These DMSO solutions were diluted 1:10 with assay buffer. The substance concentration was further diluted 1:10 in the assay mixture.
The nonspecific binding was determined with 10^−6 M AVP. Determinations in triplicate were carried out.
The affinities for the human vasopressin V1b receptor were measured, and affinity constants determined, in the above assay for the inventive examples.
The affinities of the compounds (I) of the invention for the human vasopressin V1b receptor were measured in accordance with the above assays, and the affinity constants (Ki) were determined. Table 1 below details the V1b receptor affinity of selected compounds (+++ means <10 nM and ++ means 10-100 nM).

[1] = Table 1, human vasopressin V1b receptor affinity, read-out: V1b Ki
[2] = membranes from CHO-K1 cells, 3H-AVP displacement, read-out: measured Ki values, affinities for the vasopressin V1b receptor

SMILES	Ki [1] [nM]	Ki [2] [nM]
CCOc1ccccc1C1(NC(=O)N2CCN(c3ccc(C#N)cn3)CC2)C(=O)N(S(=O)(=O)c2ccccc2OC)c2ccc(C#N)cc21 (centres unmarked) [Example 45, 4-(5-Cyanopyridin-2-yl)piperazine-1-[1-(2-methoxybenzenesulfonyl)-5-cyano-2-oxo-3-(2-ethoxyphenyl)-2,3-dihydro-1H-indol-3-yl]carboxamide]	10 to 100	< 100
CCOc1ccccc1C1(OC(=O)N2CCN(c3nccs3)CC2)C(=O)N(S(=O)(=O)c2ccc(OC)cc2OC)c2ccc(C#N)cc21 (centres unmarked) [Example 30, 1-(2,4-Dimethoxybenzenesulfonyl)-5-cyano-2-oxo-3-(2-ethoxyphenyl)-2,3-dihydro-1H-indol-3-yl 4-(thiazol-2-yl)piperazine-1-carboxylate]	< 10	< 100
CCOc1ccccc1C1(OC(=O)N2CCN(c3ccccn3)CC2)C(=O)N(S(=O)(=O)c2ccc(OC)cc2OC)c2ccc(C#N)cc21 (centres unmarked) [Example 25, 1-(2,4-Dimethoxybenzenesulfonyl)-5-cyano-2-oxo-3-(2-ethoxyphenyl)-2,3-dihydro-1H-indol-3-yl 4-(pyridin-2-yl)piperazine-1-carboxylate]	10 to 100	< 100
CCOc1ccccc1C1(NC(=O)N2CCN(c3ccncc3)CC2)C(=O)N(S(=O)(=O)c2ccc(OC)cc2OC)c2ccc(C#N)cc21 (centres unmarked) [Example 16, 4-(Pyridin-4-yl)piperazine-1-[1-(2,4-dimethoxybenzenesulfonyl)-5-cyano-2-oxo-3-(2-ethoxyphenyl)-2,3-dihydro-1H-indol-3-yl]carboxamide]	< 10	< 100
CCOc1ccccc1C1(NC(=O)N2CCN(c3ncccc3C)CC2)C(=O)N(S(=O)(=O)c2ccc(OC)cc2OC)c2ccc(C#N)cc21 (centres unmarked) [Example 32, 4-(3-Methylpyridin-2-yl)piperazine-1-[1-(2,4-dimethoxybenzenesulfonyl)-5-cyano-2-oxo-3-(2-ethoxyphenyl)-2,3-dihydro-1H-indol-3-yl]carboxamide]	10 to 100	< 100
CCOc1ccccc1C1(NC(=O)N2CCN(c3nccs3)CC2)C(=O)N(S(=O)(=O)c2ccc(OC)cc2OC)c2ccc(C#N)cc21 (centres unmarked) [Example 31, 4-(Thiazol-2-yl)piperazine-1-[1-(2,4-dimethoxybenzenesulfonyl)-5-cyano-2-oxo-3-(2-ethoxyphenyl)-2,3-dihydro-1H-indol-3-yl]carboxamide]	< 10	< 100

Other lines, results leading:

Ki [1] [nM]	Ki [2] [nM]	SMILES
10 to 100	< 100	CCOc1ccccc1C1(OC(=O)N2CCN(c3nccs3)CC2)C(=O)N(S(=O)(=O)c2ccc(C#N)cc2)c2ccc(C#N)cc21 (centres unmarked) [Example 42, 1-(4-Cyanobenzenesulfonyl)-5-cyano-2-oxo-3-(2-ethoxyphenyl)-2,3-dihydro-1H-indol-3-yl 4-(thiazol-2-yl)piperazine-1-carboxylate]
< 10	< 100	CCOc1ccccc1C1(NC(=O)N2CCN(c3ccncc3)CC2)C(=O)N(S(=O)(=O)c2ccccc2OC)c2ccc(C#N)cc21 (centres unmarked) [Example 10, 4-(Pyridin-4-yl)piperazine-1-[1-(2-methoxybenzenesulfonyl)-5-cyano-2-oxo-3-(2-ethoxyphenyl)-2,3-dihydro-1H-indol-3-yl]carboxamide]
10 to 100	< 100	CCOc1ccccc1C1(OC(=O)N2CCN(c3ccncc3)CC2)C(=O)N(S(=O)(=O)c2ccc(C#N)cc2)c2ccc(C#N)cc21 (centres unmarked) [Example 18, 1-(4-Cyanobenzenesulfonyl)-5-cyano-2-oxo-3-(2-ethoxyphenyl)-2,3-dihydro-1H-indol-3-yl 4-(pyridin-4-yl)piperazine-1-carboxylate]
< 10	< 100	CCOc1ccccc1C1(NC(=O)N2CCN(c3ccncc3)CC2)C(=O)N(S(=O)(=O)c2ccc([N+](=O)[O-])cc2)c2ccc(C#N)cc21 (centres unmarked) [Example 17, 4-(Pyridin-4-yl)piperazine-1-[1-(4-nitrobenzenesulfonyl)-5-cyano-2-oxo-3-(2-ethoxyphenyl)-2,3-dihydro-1H-indol-3-yl]carboxamide]
< 10	< 100	CCOc1ccccc1C1(OC(=O)N2CCN(c3ccncc3)CC2)C(=O)N(S(=O)(=O)c2ccc([N+](=O)[O-])cc2)c2ccc(C#N)cc21 (centres unmarked) [Example 19, 1-(4-Nitrobenzenesulfonyl)-5-cyano-2-oxo-3-(2-ethoxyphenyl)-2,3-dihydro-1H-indol-3-yl 4-(pyridin-4-yl)piperazine-1-carboxylate]
10 to 100	< 100	CCOc1ccccc1C1(OC(=O)N2CCN(c3ccncc3)CC2)C(=O)N(S(=O)(=O)c2ccccc2)c2ccc(C#N)cc21 (centres unmarked) [Example 9, 5-Cyano-1-benzenesulfonyl-3-(2-ethoxyphenyl)-2-oxo-2,3-dihydro-1H-indol-3-yl 4-(pyridin-4-yl)-piperazine-1-carboxylate]
10 to 100	< 100	CCOc1ccccc1C1(NC(=O)N2CCN(c3ccc(C#N)cn3)CC2)C(=O)N(S(=O)(=O)c2ccc(C#N)cc2)c2ccc(C#N)cc21 (centres unmarked) [Example 47, 4-(5-Cyanopyridin-2-yl)piperazine-1-[1-(4-cyanobenzenesulfonyl)-5-cyano-2-oxo-3-(2-ethoxyphenyl)-2,3-dihydro-1H-indol-3-yl]carboxamide]

Source: patent US8129389B2, “Substituted oxindole derivatives, medicaments containing the latter and use thereof” (Abbott GmbH & Co. KG, priority 2005, dated 2012)
